One data set relates to Acinetobacter baumannii. As to the kind of experiment: Antibacterial activity against Acinetobacter baumannii assessed as bacterial growth inhibition measured after 24 hrs by two fold serial dilution technique. The format is functional.
The test system of data set [1] is Escherichia coli. The experiment in a line: Antibacterial activity against Escherichia coli ATCC 25922 assessed as bacterial growth inhibition measured after 24 hrs by two fold serial dilution technique. It counts as functional.
Data set [2] relates to Staphylococcus aureus. As to the kind of experiment: Antibacterial activity against Staphylococcus aureus ATCC 25923 assessed as bacterial growth inhibition measured after 24 hrs by two fold serial dilution technique. It counts as functional.
The subject of data set [3] is Escherichia coli. As to the kind of experiment: Antibacterial activity against Escherichia coli assessed as bacterial growth inhibition measured after 24 hrs by two fold serial dilution technique. It counts as functional.
Data set [4] in a line: Hemolytic activity in human RBC assessed as hemolysis incubated for 1 hr. It counts as toxicity, cell-based, Erythrocyte. The note with it: red blood cells.
Data set [5] concerns Staphylococcus aureus. The experiment in a line: Antibacterial activity against methicillin-resistant Staphylococcus aureus assessed as bacterial growth inhibition measured after 24 hrs by two fold serial dilution technique. The format is functional.
Data set [6] relates to Pseudomonas aeruginosa. As to the kind of experiment: Antibacterial activity against Pseudomonas aeruginosa ATCC 27853 assessed as bacterial growth inhibition measured after 24 hrs by two fold serial dilution technique. The format is functional.
The test system of data set [7] is Staphylococcus aureus. As to the kind of experiment: Antibacterial activity against Staphylococcus aureus ATCC 29213 assessed as bacterial growth inhibition measured after 24 hrs by two fold serial dilution technique. The format is functional.
Data set [8] has as its system Pseudomonas aeruginosa. The experiment in a line: Antibacterial activity against Pseudomonas aeruginosa assessed as bacterial growth inhibition measured after 24 hrs by two fold serial dilution technique. The format is functional.
The test system of data set [9] is Staphylococcus aureus. The experiment in a line: Antibacterial activity against Staphylococcus aureus assessed as bacterial growth inhibition measured after 24 hrs by two fold serial dilution technique. It counts as functional.
The test system of another data set is Enterococcus faecium. As to the kind of experiment: Antibacterial activity against Enterococcus faecium assessed as bacterial growth inhibition measured after 24 hrs by two fold serial dilution technique. It counts as functional.
A further data set relates to Klebsiella pneumoniae. As to the kind of experiment: Antibacterial activity against Klebsiella pneumoniae assessed as bacterial growth inhibition measured after 24 hrs by two fold serial dilution technique. The format is functional.

Values after ≈ are worked out from the molar mass of the structure shown.

With `CO/N=C(\C(=O)N1CCN(c2ccc3c4c(cccc24)C(=O)N(c2nnc(C)s2)C3=O)CC1)c1csc(N)n1`, the MIC in the data set on Acinetobacter baumannii came to 32 µg/mL (≈ 56.9 µM); in the data set with Escherichia coli [1], 32 µg/mL (≈ 56.9 µM); in the data set on Staphylococcus aureus [2] it was 64 µg/mL (≈ 114 µM); with Escherichia coli [3], 4 µg/mL (≈ 7.11 µM); with Staphylococcus aureus [5], 1 µg/mL (≈ 1.78 µM); in the data set on Pseudomonas aeruginosa [6] it was 32 µg/mL (≈ 56.9 µM). Further, the MIC stood at 16 µg/mL (≈ 28.4 µM) in the data set on Staphylococcus aureus [7]; 32 µg/mL (≈ 56.9 µM) in the data set with Pseudomonas aeruginosa [8]; 64 µg/mL (≈ 114 µM) in the data set with Staphylococcus aureus [9]; 16 µg/mL (≈ 28.4 µM) with Enterococcus faecium; 4 µg/mL (≈ 7.11 µM) in the data set on Klebsiella pneumoniae. For the same molecule, the HC50 at 1 h in data set [4] amounted to 265 µg/mL.
As to `CO/N=C(\C(=O)N1CCN(c2ccc3c4c(cccc24)C(=O)N(n2cnnc2)C3=O)CC1)c1csc(N)n1`, the MIC with Acinetobacter baumannii came to 16 µg/mL (≈ 30.1 µM); in the data set on Escherichia coli [1], 64 µg/mL (≈ 120 µM); in the data set on Staphylococcus aureus [2] it was 128 µg/mL (≈ 241 µM); with Escherichia coli [3], 32 µg/mL (≈ 60.2 µM); in the data set on Staphylococcus aureus [5], 2 µg/mL (≈ 3.76 µM); with Pseudomonas aeruginosa [6] it was 64 µg/mL (≈ 120 µM). The MIC in the data set with Staphylococcus aureus [7] worked out at 1 µg/mL (≈ 1.88 µM); with Pseudomonas aeruginosa [8] it was 16 µg/mL (≈ 30.1 µM); with Staphylococcus aureus [9], 128 µg/mL (≈ 241 µM); in the data set on Enterococcus faecium it was 16 µg/mL (≈ 30.1 µM); in the data set with Klebsiella pneumoniae it was 64 µg/mL (≈ 120 µM). The HC50 at 1 h in [4] came to 255 µg/mL.
For `O=C(O)c1cn(C2CC2)c2cc(N3CCNCC3)c(F)cc2c1=O` [CIPROFLOXACIN], the MIC in the data set with Acinetobacter baumannii is 2 µg/mL (≈ 6.04 µM); in the data set on Staphylococcus aureus [2] it was 0.5 µg/mL (≈ 1.51 µM); with Staphylococcus aureus [5], 4 µg/mL (≈ 12.1 µM); in the data set with Staphylococcus aureus [7] it was 8 µg/mL (≈ 24.1 µM); with Staphylococcus aureus [9], 2 µg/mL (≈ 6.04 µM); in the data set on Enterococcus faecium, 2 µg/mL (≈ 6.04 µM). Also, the MIC with Klebsiella pneumoniae worked out at 2 µg/mL (≈ 6.04 µM).
Consider `CO/N=C(\C(=O)N1CCN(c2ccc3c4c(cccc24)C(=O)N(C)C3=O)CC1)c1csc(N)n1`, for which the MIC amounted to 8 µg/mL (≈ 16.7 µM) in the data set on Acinetobacter baumannii; 64 µg/mL (≈ 134 µM) in the data set with Escherichia coli [1]; 64 µg/mL (≈ 134 µM) with Staphylococcus aureus [2]; 32 µg/mL (≈ 66.9 µM) with Escherichia coli [3]; 4 µg/mL (≈ 8.36 µM) with Staphylococcus aureus [5]; 32 µg/mL (≈ 66.9 µM) in the data set with Pseudomonas aeruginosa [6]. Moreover, the MIC in the data set on Staphylococcus aureus [7] is 16 µg/mL (≈ 33.4 µM); in the data set with Pseudomonas aeruginosa [8], 64 µg/mL (≈ 134 µM); with Staphylococcus aureus [9], 16 µg/mL (≈ 33.4 µM); with Enterococcus faecium, 8 µg/mL (≈ 16.7 µM); in the data set on Klebsiella pneumoniae it was 8 µg/mL (≈ 16.7 µM). Besides, the HC50 at 1 h in data set [4] amounted to 343 µg/mL.
Consider `CO/N=C(\C(=O)N1CCN(c2ccc3c4c(cccc24)C(=O)N(CCO)C3=O)CC1)c1csc(N)n1`, for which the MIC with Acinetobacter baumannii came out at 16 µg/mL (≈ 31.5 µM); with Escherichia coli [1] it was 64 µg/mL (≈ 126 µM); in the data set with Staphylococcus aureus [2] it was 16 µg/mL (≈ 31.5 µM); with Escherichia coli [3], 16 µg/mL (≈ 31.5 µM); with Staphylococcus aureus [5], 2 µg/mL (≈ 3.93 µM); in the data set with Pseudomonas aeruginosa [6], 64 µg/mL (≈ 126 µM). Moreover, the MIC in the data set on Staphylococcus aureus [7] turned out to be 32 µg/mL (≈ 62.9 µM); with Pseudomonas aeruginosa [8], 16 µg/mL (≈ 31.5 µM); in the data set with Staphylococcus aureus [9], 64 µg/mL (≈ 126 µM); with Enterococcus faecium, 16 µg/mL (≈ 31.5 µM); in the data set on Klebsiella pneumoniae, 64 µg/mL (≈ 126 µM). Besides, in data set [4], the HC50 at 1 h was determined as 214 µg/mL.
Turning to `CCCCN1C(=O)c2cccc3c(N4CCN(C(=O)/C(=N\OC)c5csc(N)n5)CC4)ccc(c23)C1=O`, the MIC with Acinetobacter baumannii worked out at 8 µg/mL (≈ 15.4 µM); in the data set with Escherichia coli [1], 64 µg/mL (≈ 123 µM); in the data set on Staphylococcus aureus [2], 128 µg/mL (≈ 246 µM); with Escherichia coli [3], 32 µg/mL (≈ 61.5 µM); in the data set on Staphylococcus aureus [5], 8 µg/mL (≈ 15.4 µM); in the data set with Pseudomonas aeruginosa [6], 64 µg/mL (≈ 123 µM). Further, the MIC with Staphylococcus aureus [7] was determined as 64 µg/mL (≈ 123 µM); in the data set with Pseudomonas aeruginosa [8], 64 µg/mL (≈ 123 µM); in the data set on Staphylococcus aureus [9], 64 µg/mL (≈ 123 µM); in the data set on Enterococcus faecium it was 16 µg/mL (≈ 30.7 µM); in the data set on Klebsiella pneumoniae, 64 µg/mL (≈ 123 µM). Moreover, the HC50 at 1 h in data set [4] was found to be 563 µg/mL.
As for `CO/N=C(\C(=O)N1CCN(c2ccc3c4c(cccc24)C(=O)N(Oc2ccccc2)C3=O)CC1)c1csc(N)n1`, the MIC in the data set on Acinetobacter baumannii was found to be 32 µg/mL (≈ 57.5 µM); with Escherichia coli [1], 128 µg/mL (≈ 230 µM); in the data set on Staphylococcus aureus [2] it was 16 µg/mL (≈ 28.7 µM); in the data set on Escherichia coli [3] it was 2 µg/mL (≈ 3.59 µM); with Staphylococcus aureus [5] it was 1 µg/mL (≈ 1.8 µM); in the data set with Pseudomonas aeruginosa [6], 32 µg/mL (≈ 57.5 µM). In addition, the MIC with Staphylococcus aureus [7] was 64 µg/mL (≈ 115 µM); in the data set with Pseudomonas aeruginosa [8], 32 µg/mL (≈ 57.5 µM); in the data set on Staphylococcus aureus [9], 64 µg/mL (≈ 115 µM); with Enterococcus faecium it was 64 µg/mL (≈ 115 µM); with Klebsiella pneumoniae, 32 µg/mL (≈ 57.5 µM). Also, the HC50 at 1 h in [4] amounted to 223 µg/mL.
On to `CN(C)[C@@H]1C(O)=C(C(N)=O)C(=O)[C@@]2(O)C(O)=C3C(=O)c4c(O)cccc4[C@@](C)(O)[C@H]3C[C@@H]12` [TETRACYCLINE], for which the MIC in the data set on Acinetobacter baumannii worked out at 0.25 µg/mL (≈ 0.563 µM); with Escherichia coli [1] it was 1 µg/mL (≈ 2.25 µM); in the data set on Staphylococcus aureus [2], 4 µg/mL (≈ 9 µM); in the data set with Escherichia coli [3], 0.25 µg/mL (≈ 0.563 µM); in the data set on Staphylococcus aureus [5], 1 µg/mL (≈ 2.25 µM); in the data set with Pseudomonas aeruginosa [6] it was 64 µg/mL (≈ 144 µM). Also, the minimal inhibitory concentration (MIC) with Staphylococcus aureus [7] was 4 µg/mL (≈ 9 µM); with Pseudomonas aeruginosa [8], 0.25 µg/mL (≈ 0.563 µM); in the data set on Staphylococcus aureus [9], 1 µg/mL (≈ 2.25 µM); with Enterococcus faecium, 2 µg/mL (≈ 4.5 µM); with Klebsiella pneumoniae it was 16 µg/mL (≈ 36 µM).
With `CO/N=C(\C(=O)N1CCN(c2ccc3c4c(cccc24)C(=O)N(c2nccs2)C3=O)CC1)c1csc(N)n1`, the MIC came to 16 µg/mL (≈ 29.2 µM) in the data set with Acinetobacter baumannii; 64 µg/mL (≈ 117 µM) with Escherichia coli [1]; 16 µg/mL (≈ 29.2 µM) in the data set on Staphylococcus aureus [2]; 16 µg/mL (≈ 29.2 µM) in the data set on Escherichia coli [3]; 2 µg/mL (≈ 3.65 µM) in the data set with Staphylococcus aureus [5]; 64 µg/mL (≈ 117 µM) with Pseudomonas aeruginosa [6]. For the same molecule, the MIC in the data set with Staphylococcus aureus [7] came out at 32 µg/mL (≈ 58.4 µM); in the data set on Pseudomonas aeruginosa [8], 64 µg/mL (≈ 117 µM); with Staphylococcus aureus [9] it was 16 µg/mL (≈ 29.2 µM); with Enterococcus faecium, 16 µg/mL (≈ 29.2 µM); in the data set on Klebsiella pneumoniae it was 64 µg/mL (≈ 117 µM). The HC50 at 1 h in data set [4] amounted to 311 µg/mL.
